4 compounds from patent US20250177359A1, “COMPOUNDS FOR USE IN THE TREATMENT OF CANCER AND INFLAMMATORY CONDITIONS” (priority 2022, published 2025) can be followed below.

Molecules are shown by their SMILES. pIC50: −log10 of the molar value. Like-named read-outs stand apart in the source and are kept apart here.

One assay has as its target T1, PARP2 (Homo sapiens, UniProt Q9UGN5).
T1 construct: made in house
Description: biochemical. Type of assay: biochemical.

The target of a further assay is T2, TNKS1 (Homo sapiens, UniProt O95271).
T2 sequence (O95271 1-1327): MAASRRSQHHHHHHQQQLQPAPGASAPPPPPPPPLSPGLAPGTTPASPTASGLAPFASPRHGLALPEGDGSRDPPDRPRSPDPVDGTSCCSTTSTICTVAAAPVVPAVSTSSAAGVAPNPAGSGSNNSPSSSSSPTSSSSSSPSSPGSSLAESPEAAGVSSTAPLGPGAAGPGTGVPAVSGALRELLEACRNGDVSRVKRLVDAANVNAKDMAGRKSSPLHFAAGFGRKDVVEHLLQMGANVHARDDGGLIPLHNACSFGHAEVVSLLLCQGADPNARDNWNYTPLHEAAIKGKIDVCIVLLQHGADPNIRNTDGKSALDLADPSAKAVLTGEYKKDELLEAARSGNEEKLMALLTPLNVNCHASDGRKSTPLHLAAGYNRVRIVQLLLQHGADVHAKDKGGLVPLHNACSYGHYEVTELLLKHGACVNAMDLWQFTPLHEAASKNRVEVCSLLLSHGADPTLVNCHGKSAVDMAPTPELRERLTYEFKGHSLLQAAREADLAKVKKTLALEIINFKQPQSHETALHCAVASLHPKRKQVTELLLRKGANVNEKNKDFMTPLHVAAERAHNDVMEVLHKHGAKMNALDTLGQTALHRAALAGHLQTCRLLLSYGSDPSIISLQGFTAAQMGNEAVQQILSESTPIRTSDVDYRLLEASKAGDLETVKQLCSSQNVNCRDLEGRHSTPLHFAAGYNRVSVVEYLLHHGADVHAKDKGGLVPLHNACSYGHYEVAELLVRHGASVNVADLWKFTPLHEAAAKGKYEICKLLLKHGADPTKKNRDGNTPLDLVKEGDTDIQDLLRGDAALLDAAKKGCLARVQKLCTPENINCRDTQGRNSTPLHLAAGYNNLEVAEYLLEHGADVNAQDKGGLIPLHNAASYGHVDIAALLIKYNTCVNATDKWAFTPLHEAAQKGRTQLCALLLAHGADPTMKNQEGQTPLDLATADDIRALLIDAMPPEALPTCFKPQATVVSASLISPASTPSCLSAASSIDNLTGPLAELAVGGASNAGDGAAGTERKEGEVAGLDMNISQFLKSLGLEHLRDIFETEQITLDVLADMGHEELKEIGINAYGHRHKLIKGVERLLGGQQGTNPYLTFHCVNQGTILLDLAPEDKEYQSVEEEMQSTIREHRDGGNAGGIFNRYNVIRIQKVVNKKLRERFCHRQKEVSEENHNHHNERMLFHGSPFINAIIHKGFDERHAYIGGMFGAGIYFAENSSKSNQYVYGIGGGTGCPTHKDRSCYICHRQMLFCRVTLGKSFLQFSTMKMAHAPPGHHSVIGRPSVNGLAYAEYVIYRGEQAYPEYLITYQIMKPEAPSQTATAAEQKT
Description: Activity assay measuring NAD+ consumption, TNKS1. Type of assay: biochemical. Particulars: Table 4. The method, then:
All starting materials, reagents, and solvents were purchased from common commercial suppliers and were used as such without further purification. […] Organic solutions were dried over anhydrous Na2SO4 and concentrated with rotary evaporator at low pressure. All the reactions were routinely checked by thin-layer chromatography (TLC) on silica gel 60F254 (Merck) and visualized by using UV and iodine. Flash chromatography separations were carried out on Merck silica gel 60 (mesh 230-400) or by using automated Buchi Reveleris X2-UV with column FP Ecoflex Si 12 g. Yields were of purified products and were not optimized. ^1HNMR spectra were recorded at 400 MHz (Bruker Avance DRX-400), while ^13CNMR spectra were recorded at 101 MHz (Bruker Avance DRX-400). Chemical shifts are given in ppm (δ) relative to TMS. […] Mating constant (J) are reported in Hz. The purity of the tested compounds was evaluated by HPLC analysis using Jasco LC-4000 instrument equipped with a UV-Visible Diode Array Jasco-MD4015 (Jasco Corporation, Tokyo, Japan), and XTerra MS C18 column, 5 μm×4.6 mm×150 mm (Waters Corporation, Massachusetts, USA). Chromatograms were analyzed by ChromNAV2.0 Chromatography Data System software. […] The peak retention time (ret. time) is given in minutes. […] 1-Isobutoxy-4-methoxy-2-nitrobenzene (113). Isobutyl alcohol (0.6 mL, 6.43 mmol) was added, under nitrogen atmosphere at 0° C., to a suspension of NaH (0.26 g, 6.43 mmol) in dry DMF. After 15 minutes, 1-fluoro-4-methoxy-2-nitrobenzene 112 (1 g, 5.84 mmol) was also added and the reaction mixture was stirred at 80° C. for 4 h. […] (2-Isobutoxy-5-methoxyphenyl)amine (114). Zn (1.57 g, 24 mmol) and NH4C1 (2.45 g, 40 mmol) were added to a solution of 113 (0.46 g, 2 mmol) in acetone/H2O (50 mL, ratio 5:1). The reaction mixture was stirred at 60° C. for 3 h and, then, it was filtered over celite. […] N-(2,5-diethoxyphenyl)thiourea (55). […] N-(2-isobutoxy-5-methoxyphenyl)thiourea (115). […] A solution of Br2 (0.2 mL, 3.3 mmol) in CHCl3 (5 mL) was slowly added to a suspension of 45 (0.6 g, 3.3 mmol) in CHCl3 (13 mL), at 0° C. […]

T1 sequence (Q9UGN5 whole entry): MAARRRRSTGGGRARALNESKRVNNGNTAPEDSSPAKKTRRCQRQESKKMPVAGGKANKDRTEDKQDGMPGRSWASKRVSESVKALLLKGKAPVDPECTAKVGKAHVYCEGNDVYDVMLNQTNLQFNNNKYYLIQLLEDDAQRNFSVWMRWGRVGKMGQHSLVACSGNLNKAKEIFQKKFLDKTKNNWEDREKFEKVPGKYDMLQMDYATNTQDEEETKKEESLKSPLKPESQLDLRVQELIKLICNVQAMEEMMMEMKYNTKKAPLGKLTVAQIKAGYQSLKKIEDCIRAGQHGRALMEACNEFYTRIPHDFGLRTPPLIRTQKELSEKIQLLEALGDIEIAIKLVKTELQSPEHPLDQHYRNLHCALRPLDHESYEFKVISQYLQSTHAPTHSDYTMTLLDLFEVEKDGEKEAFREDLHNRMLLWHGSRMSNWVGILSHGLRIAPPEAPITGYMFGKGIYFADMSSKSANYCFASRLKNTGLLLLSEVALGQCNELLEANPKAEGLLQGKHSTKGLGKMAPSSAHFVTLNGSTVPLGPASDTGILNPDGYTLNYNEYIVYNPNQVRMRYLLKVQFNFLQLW

As for `COc1ccc(OC)c2c1sc1nnc(N)n12` [Compound 28, 5,8-Dimethoxy[1,2,4]triazolo[3,4-b][1,3]benzothiazol-3-amine], the pIC50 at PARP2 (NAD+ consumption assay, > less than 50% inhibition at highest concentration, >> no inhibition) was 5.00; at TNKS1, 5.27. At TNKS1, `Cc1ccc2c(c1)sc1nnc(N)n12` [Compound 22, 7-Methyl[1,2,4]triazolo[3,4-b][1,3]benzothiazol-3-amine] gave a pIC50 of 5.68. Take `Nc1nnc2sc3cc(O)ccc3n12` [Compound 109, 3-Amino[1,2,4]triazolo[3,4-b][1,3]benzothiazol-7-ol]: the pIC50 at PARP2 (NAD+ consumption assay) was 8.00 to 8.30.

Take `Oc1ccc2c(c1)sc1nncn12` [Compound 10]: the pIC50 against PARP2 was 7.36; at TNKS1, 5.80. Moreover, the “PARP2 pIC50 ± SEM” value at PARP2 was “(7.44 ± 0.12)”.
